How the values were obtained:
[1] = test system: phospholipase C (PLC); conditions: in B-lymphocytes; cited from earlier work
[2] = test system: test mice (6-8-week-old athymic nu/nu on a BALB/c background); assay: Quantity of anti-E2 antibody (ELISA) in blood of mice injected with vaccine; format: in vivo; conditions: when used together with alum; E2 protein antigen
Protocol: 5 μg of E2 protein antigen obtained in Reference Example was dissolved in 150 μl of PBS (pH 7.2), and 7 μg of the peptide of sequence of SEQ ID NO: 1 synthesized using a conventional peptide synthesis method (Houghten, R. A. et al., Nature, 354, 84(1991)) was added thereto together with alum to obtain a vaccine.
The vaccine thus obtained was injected subcutaneously into test mice (6-8-week-old athymic nu/nu on a BALB/c background). After 5 weeks, a booster injection was carried out, and after another 2 weeks, blood samples were taken from the mice.
For comparison, three different vaccine compositions were also tested as above. These comparative controls were: a vaccine containing E2 protein and alum; a vaccine containing E2 protein and the peptide of sequence of SEQ ID NO: 1; and a vaccine containing alum and the peptide of sequence of SEQ ID NO: 1. The peptides used in this Example include the D-Met residue of SEQ ID NO: 1 having CONH2 substituted for the carboxyl group. […]
Thereafter, 80 μl/well of color former (ABSI (Chemicon®)) were added to each of the 96-wells of the plate, and they were incubated at room temperature for 20 minutes. After the reaction, the O.D. of each well was determined at the wavelength of 405 nm with an ELISA reader.

[3] = test system: human B-lymphocyte cell line U266; conditions: cited from earlier work
[4] = test system: monocytes, B-lymphocytes, and neutrophils; conditions: cited from earlier work
[5] = test system: neutrophils; conditions: stimulated neutrophils; cited from earlier work
[6] = test system: human neutrophils; conditions: cited from earlier work
[7] = test system: specific receptor protein in the cell membrane of the U266 cell line; conditions: cited from earlier work

Substance: Trp Lys Tyr Met Val Met [peptide of SEQ ID NO: 1]
- activity of phospholipase C (PLC) [1]: enhances
- effect of promoting the vaccination efficiency [2]: remarkable synergistic effect
- intracellular calcium [Ca2+]I release [3]: induces
- activation of monocytes, B-lymphocytes, and neutrophils [4]: activates
- production of active oxygen species [5]: increase
- chemotaxis [6]: induces chemotaxis
- binding with receptor, activation of the cellular signal pathway [7]: binding with a specific receptor protein

From patent US20030091585A1, “Vaccine composition containing a promoter peptide” (priority 2001, published 2003)
